Test results published in patent publication US20090131366A1, “Use of Amine-Borane Compounds as Anti-Microbial Agents” (priority 2005, published 2009).
Values after ≈ are worked out from the molar mass of the structure shown. Like-named read-outs stand apart in the source and are kept apart here.

Key:
[1] = test system: Aspergillus fumigatus 64026; type: cell-based
Candida albicans 607 = type: cell-based
Candida albicans 615 = type: cell-based
Candida albicans CBS 562 = type: cell-based
Candida glabrata 4681 = type: cell-based; conditions: Table 1, footnote c
Candida glabrata 4787 = type: cell-based
Candida glabrata 4210 = type: cell-based; conditions: Table 1, footnote c
[2] = test system: Candida glabrata 4475 (resistant to azoles); type: cell-based; conditions: Table 1, footnote c
in vivo = conditions: male, ICR, mouse, iv
male ICR mice = conditions: mice that received the MTD

Molecule	MIC ([1]; Table 1, read-out: MIC) [µM]	MIC (Candida albicans 607; Table 1, read-out: MIC) [µM]	MIC (Candida albicans 615; Table 1, read-out: MIC) [µM]	MIC (Candida albicans CBS 562; CBS562, Table 1, read-out: MIC) [µM]	MIC (Candida albicans 607; Table 1) [µM]	MIC (Candida albicans 615; Table 1) [µM]	MIC (Candida albicans CBS 562; Table 1) [µM]	also measured
OC(Cn1cncn1)(Cn1cncn1)c1ccc(F)cc1F [CAF2, Fluconazole, reference compound]	> 208	1.6 (≈ 0.49 µg/mL)	1.6 (≈ 0.49 µg/mL)	1.6 (≈ 0.49 µg/mL)				
CCCCN(C)C [K-G, butyl-dimethyl-amine cyanoborane]	> 3570	> 3570	> 3570	3570 (≈ 361 µg/mL)				
C=CCCN(C)C [K-D, but-3-enyl-dimethyl-amine cyanoborane]	> 3620	3620 (≈ 359 µg/mL)	> 3620	470 (≈ 46.6 µg/mL)				
C[C@@H]1[C@H](O)[C@@H](C)/C=C/C=C/C=C/C=C/C=C/C=C/C=C/[C@H](O[C@@H]2O[C@H](C)[C@@H](O)[C@H](N)[C@@H]2O)C[C@@H]2O[C@](O)(C[C@@H](O)C[C@@H](O)[C@H](O)CC[C@@H](O)C[C@@H](O)CC(=O)O[C@H]1C)C[C@H](O)[C@H]2C(=O)O [CAF1, Amphotericin B, reference compound]					0.27 (≈ 0.25 µg/mL)	0.27 (≈ 0.25 µg/mL)	0.54 (≈ 0.499 µg/mL)	MIC ([1]; Table 1): 0.5 µM (≈ 0.462 µg/mL)
N,N,N′,N′-tetramethyl- decane-1,10-diamine bis- cyanobromoborane [K-J1]					140	140	140	MIC (Candida glabrata 4681): 65^c μg per liter; MIC (Candida glabrata 4787; Table 1): 65 µM; MIC (Candida glabrata 4210): 65^c μg per liter; MIC [2]: 65^c μg per liter
CCCCCCCCCCCN(C)C [K-I1, dimethyl-undecyl-amine cyanobromoborane]								MIC ([1]; Aspergillus fumigatus, 64026, Table 1 column I, read-out: MIC): 131 µM (≈ 26.1 µg/mL); MIC (Candida albicans 607; Candida albicans, 607, Table 1 column B, read-out: MIC): 49 µM (≈ 9.77 µg/mL); MIC (Candida albicans 615; Candida albicans, 615, Table 1 column C, read-out: MIC): 49 µM (≈ 9.77 µg/mL); MIC (Candida albicans CBS 562; Candida albicans, CBS562, Table 1 column A, read-out: MIC): 49 µM (≈ 9.77 µg/mL)
C[N+](C)(CCCCCCCCCC[N+](C)(C)[B-](Br)(Br)C#N)[B-](Br)(Br)C#N [K-J2, N,N,N′,N′-tetramethyl-decane-1,10-diamine bis-cyanodibromoborane]					104 (≈ 64.7 µg/mL)	104 (≈ 64.7 µg/mL)	104 (≈ 64.7 µg/mL)	MIC (Candida glabrata 4681): 65^c μg per liter; MIC (Candida glabrata 4787; Table 1): 65 µM (≈ 40.4 µg/mL); MIC (Candida glabrata 4210): 65^c μg per liter; MIC [2]: 65^c μg per liter
CCCCCCCCCCCN(C)C [K-I2, dimethyl-undecyl-amine cyanodibromoborane]					39 (≈ 7.78 µg/mL)	39 (≈ 7.78 µg/mL)	39 (≈ 7.78 µg/mL)	MIC ([1]; Table 1): 79 µM (≈ 15.8 µg/mL); MIC (Candida glabrata 4681): 32^c μg per liter; MIC (Candida glabrata 4787; Table 1): 32 µM (≈ 6.38 µg/mL); MTD (in vivo): 73.1 µmol/kg; clinical signs, body weights and gross necropsy (day 8) (male ICR mice): No changes
CCCCCCCCCCCN(C)C [K-I4, dimethyl-undecyl-amine cyanofluoroborane]					64 (≈ 12.8 µg/mL)	64 (≈ 12.8 µg/mL)	64 (≈ 12.8 µg/mL)	MIC ([1]; Table 1): 129 µM (≈ 25.7 µg/mL)
CCCCCCCCCCCN(C)C [K-I3, dimethyl-undecyl-amine cyanofluorobromoborane]								MIC (Candida albicans CBS 562; Candida albicans, CBS562, 24 h, Table 1, read-out: MIC): 7.8 µM (≈ 1.56 µg/mL)
C[N+](C)(C)[B-](Br)(Br)C#N [K-E, trimethyl-amine cyanodibromoborane]					>1970	>1970	1970 (≈ 504 µg/mL)	MIC (Candida glabrata 4210): 500^c μg per liter; MIC [2]: >500^c μg per liter
N,N,N′,N′-tetramethyl- decane-1,10-diamine bis- carboxyborane [K-J3]					188	907	188	MIC (Candida glabrata 4681): 65^c μg per liter; MIC (Candida glabrata 4787; Table 1): 65 µM; MIC (Candida glabrata 4210): 65^c μg per liter; MIC [2]: 31.2^c μg per liter

Continued, in another order:

MIC ([1]; Table 1, read-out: MIC) [µM]	MIC (Candida albicans 607; Table 1, read-out: MIC) [µM]	MIC (Candida albicans 615; Table 1, read-out: MIC) [µM]	MIC (Candida albicans CBS 562; CBS562, Table 1, read-out: MIC) [µM]	Molecule	MIC (Candida albicans 607; Table 1) [µM]	MIC (Candida albicans 615; Table 1) [µM]	MIC (Candida albicans CBS 562; Table 1) [µM]	also measured
3240 (≈ 373 µg/mL)	3240 (≈ 373 µg/mL)	3240 (≈ 373 µg/mL)	810 (≈ 93.3 µg/mL)	CCCCCN(C)C [K-H, pentyl-dimethyl-amine cyanoborane]				
	1100 (≈ 206 µg/mL)	1100 (≈ 206 µg/mL)	2210 (≈ 414 µg/mL)	CCCCCCC(C)(O)CN(C)C (centres unmarked) [K-O, 1-dimethylamino-2-methyl-octan-2-ol cyanoborane]				
86 (≈ 24.5 µg/mL)	43 (≈ 12.2 µg/mL)	43 (≈ 12.2 µg/mL)	43 (≈ 12.2 µg/mL)	CN(C)CCCCCCCCCCCCCCN(C)C [K-N, N,N,N′,N′-tetramethyl-tetradecane-1,14-diamine bis-cyanoborane]				
492 (≈ 106 µg/mL)	492 (≈ 106 µg/mL)	983 (≈ 212 µg/mL)	492 (≈ 106 µg/mL)	CCCCCCCCCC(O)CN(C)C (centres unmarked) [K-U, 1-dimethylamino-undecan-2-ol cyanoborane]				
	194 (≈ 49.8 µg/mL)	46 (≈ 11.8 µg/mL)	96 (≈ 24.6 µg/mL)	CN(C)CCCCCCCCCCCCN(C)C [K-M, N,N,N′,N′-tetramethyl-dodecane-1,12-diamine bis-cyanoborane]				MIC (Candida glabrata 4681): 125^c μg per liter; MIC (Candida glabrata 4787; Nakaseomyces glabratus, Table 1, read-out: MIC): 250 µM (≈ 64.1 µg/mL)
94 (≈ 12 µg/mL)	94 (≈ 12 µg/mL)	94 (≈ 12 µg/mL)	94 (≈ 12 µg/mL)	C=CCCCCN(C)C [K-V, hex-5-enyl-dimethyl-amine cyanoborane]				
